PMC9097415, “Nanomolar EP4 receptor potency and expression of eicosanoid-related enzymes in normal appearing colonic mucosa from patients with colorectal neoplasia” (BMC Gastroenterology, 2022)
Values joined by “and” are separate entries in the source; they are usually repeats but may differ in a detail not shown here. Equal entries are not always repeated.

What was measured:
EP receptors (EP1-4) = assay: PGE2 stimulation of colonic mucosa biopsies in MUAS-chambers, short circuit current (SCC); format: cell-based, human
Procedure: (§1) Four biopsies were mounted and oxygenated in MUAS-chambers after extraction as described by Larsen et al. generally within 45 min after extraction. Biopsies were bathed on both sides with 10 mL Ringer, supplemented with 5.5 mM D-glucose. Temperature was maintained at 37.2 °C by water jackets. An automated voltage-clamp device continuously recorded SCC and slope conductance.
(§2) Experiments began after a stable basal SCC was obtained within 10 min after proper mounting. All experiments were initiated by addition of amiloride (20 µM, mucosal side) to inhibit electrogenic sodium absorption mediated through epithelial sodium channels and followed by theophylline (400 µM, serosal side) to inhibit phosphodiesterase-dependent cyclic adenosine monophosphate (cAMP) degradation. Finally, to eliminate endogenous prostaglandin synthesis, indomethacin (13 µM, serosal side) was added and incubated for 40 min.
(§3) Biopsies from 47 patients were treated with PGE2 and selective EP receptor agonists to investigate receptor function, Table 1. A single agonist was added in increasing concentrations (1 nM to 5 µM, serosal side) to each MUAS-chamber. The final agonist concentration step was followed by the addition of 5 µM PGE2, to elicit a maximal PGE2-induced response.
(§4) To assess agonists and receptors, data obtained from dose–response curves were analyzed with either a single-Michaelis–Menten model (srm) or a two-Michaelis–Menten receptor/site model (trm) using Sigmaplot 13.0 for Windows, Systat Software Inc. (USA/Canada). Outcome data were maximum SCC responses (RMax) and EC50 of these analyses.

EP4 receptor [1] = target: T1, EP4 receptor (Homo sapiens, UniProt P35408); assay: EP4 agonist stimulation of colonic mucosa biopsies in MUAS-chambers, SCC; format: cell-based
T1 construct: Four biopsies were mounted and oxygenated in MUAS-chambers after extraction; from tissue; host or cells: human colonic mucosa biopsies mounted in MUAS (modified Ussing) chambers
T1 sequence (P35408 whole entry): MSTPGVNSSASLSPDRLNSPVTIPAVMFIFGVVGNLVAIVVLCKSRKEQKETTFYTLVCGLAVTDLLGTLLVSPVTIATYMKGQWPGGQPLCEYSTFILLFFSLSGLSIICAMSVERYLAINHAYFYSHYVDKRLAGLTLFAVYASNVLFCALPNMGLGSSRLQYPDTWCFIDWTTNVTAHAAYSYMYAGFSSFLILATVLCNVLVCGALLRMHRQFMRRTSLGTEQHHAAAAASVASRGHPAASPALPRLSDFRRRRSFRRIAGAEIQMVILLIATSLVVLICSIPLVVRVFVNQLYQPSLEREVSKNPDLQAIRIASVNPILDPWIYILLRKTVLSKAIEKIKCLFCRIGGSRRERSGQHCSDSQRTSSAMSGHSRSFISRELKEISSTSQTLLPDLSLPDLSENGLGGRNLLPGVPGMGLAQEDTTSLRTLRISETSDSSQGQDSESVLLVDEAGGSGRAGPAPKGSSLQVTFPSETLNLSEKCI
Procedure: as §1, §2, §3, §4

EP1 receptor = target: T2, EP1 receptor (Homo sapiens, UniProt P34995); assay: EP1 agonist stimulation of colonic mucosa biopsies in MUAS-chambers, SCC; format: cell-based; settings: biopsies exposed to the selective EP1 agonist
T2 construct: Four biopsies were mounted and oxygenated in MUAS-chambers after extraction; from tissue; host or cells: human colonic mucosa biopsies mounted in MUAS (modified Ussing) chambers
T2 sequence (P34995 1-402): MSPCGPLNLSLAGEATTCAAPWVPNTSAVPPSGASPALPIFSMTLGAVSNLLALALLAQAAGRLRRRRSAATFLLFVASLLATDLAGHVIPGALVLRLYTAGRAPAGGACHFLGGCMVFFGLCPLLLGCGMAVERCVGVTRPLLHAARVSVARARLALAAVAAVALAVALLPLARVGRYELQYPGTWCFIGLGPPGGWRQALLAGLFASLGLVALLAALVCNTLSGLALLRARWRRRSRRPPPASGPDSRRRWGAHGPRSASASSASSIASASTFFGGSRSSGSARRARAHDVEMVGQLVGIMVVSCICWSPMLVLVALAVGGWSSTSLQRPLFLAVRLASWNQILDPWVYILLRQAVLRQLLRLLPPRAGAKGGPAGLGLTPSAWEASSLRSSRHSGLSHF
Procedure: as §1, §2
Biopsies from 47 patients were treated with PGE2 and selective EP receptor agonists to investigate receptor function, Table 1. A single agonist was added in increasing concentrations (1 nM to 5 µM, serosal side) to each MUAS-chamber. […]
To assess agonists and receptors, data obtained from dose–response curves were analyzed with either a single-Michaelis–Menten model (srm) or a two-Michaelis–Menten receptor/site model (trm) using Sigmaplot 13.0 for Windows, Systat Software Inc. (USA/Canada). […]

EP4 receptor [2] = target: T1, EP4 receptor; assay: EP4 antagonist GW-X added before PGE2 dose-response in MUAS-chambers, agonist-based Cheng-Prusoff analysis; format: cell-based
Procedure: as §1, §2
Biopsies from 26 patients were treated with selective EP receptor antagonists, Table 1. A combination of 3 antagonists was added to each MUAS chamber (serosal side), to single out and investigate the remaining non-inhibited EP receptor subtype. After antagonist incubation (45 min), cumulative doses of PGE2 were added (3 nM to 1 µM, serosal side). The EP4 receptor was also examined with another selective antagonist, GW627368X (GW-X, 5 µM, serosal side).
as §4
From 2 agonist dose-response curves, one determined in the absence of a competitive antagonist, the other in its presence at only a single concentration, it is possible to calculate the antagonist apparent half inhibition dissociation constant at equilibrium, […]. […]

With CCCCC[C@H](O)/C=C/[C@H]1[C@H](O)CC(=O)[C@@H]1C/C=C\CCCC(=O)O [PGE2, Prostaglandin E2] the “PGE2 concentration at which SCC increased (as low as)” value (EP receptors (EP1-4); both patient groups (CRN and CTRL), serosal side) was no more than 1 nM, the “EP4 receptor potency of PGE2” value (EP receptors (EP1-4); normal appearing colonic mucosa) was “low nanomolar range” and the “RMax rank among agonists” value (EP receptors (EP1-4); srm and trm) was “highest”. For the same molecule, the “Average separation factor between EC50s of high and low affinity receptors” value (EP receptors (EP1-4); two receptor model (trm)) was 64.

For TCS 2510 [EP4 agonist], the “RMax as share of the PGE2 response” value (EP4 receptor [1]; CRN patients) was roughly 75%, the “RMax as share of the PGE2 response” value (EP4 receptor [1]; CTRL patients) was “approximately 50%” and the “Sensitivity / potency for SCC increase” value (EP4 receptor [1]; similar sensitivity to PGE2) was “high potency in the low nanomolar range”. For the same molecule, the “EC50 in CRN patients compared to CTRLs” value (EP4 receptor [1]; single receptor model (srm)) was “higher”, the “Average separation factor between EC50s of high and low affinity receptors” value (EP4 receptor [1]; two receptor model (trm)) was 15 and the “RMax of low affinity receptors in CRN patients” value (EP4 receptor [1]; two receptor model (trm)) was “significantly increased”.

CCCC[C@H](C)C[C@H](O)/C=C/[C@H]1[C@H](O)CC(=O)[C@@H]1CC(=O)C1CCC(C(=O)O)CC1 (some centres unmarked) [EP1 agonist, ONO-DI004] was tested, and the “Biopsies showing no increase in SCC” value (EP1 receptor) was 4 out of 22.

With CCOc1c2c(c(OCC)c3ccccc13)C(=O)N(c1ccc(CC(=O)NS(=O)(=O)c3ccccc3)cc1)C2 [GW-X, GW627368X] the “Mean EC50 ratio (agonist EC50 with / without antagonist)” value (EP4 receptor [2]; GW-X 5 µM, 4 protocols) was “approximately 25”, the IC50 (EP4 receptor [2]; against PGE2 (and TCS 2510), GW-X 5 µM, from EC50 ratios, 14 individual experiments) was ~210 nM and 210 nM and the “Type of inhibition of PGE2” value (EP4 receptor [2]; low nanomolar PGE2 concentration range, rightward shift of the dose-response curve) was “competitive inhibition”.
